Data set [1] can be described thus: Growth inhibition of PI3Kdelta-overexpressing human SU-DHL-6 cells incubated for 72 hrs by MTT assay. In kind it is functional. (In general: Formazan colour is commonly taken as a measure of viable cells.)
The nature of data set [2]: Growth inhibition of PI3Kdelta-overexpressing human Pfeiffer cells incubated for 72 hrs by MTT assay. In kind it is functional.
Data set [3] concerns HCT-116. Briefly: Growth inhibition of human HCT-116 cells incubated for 72 hrs by MTT assay. It is filed as functional.
Data set [4] deals with MCF7. Briefly: Growth inhibition of human MCF7 cells incubated for 72 hrs by MTT assay. It is filed as functional.
The test system of data set [5] is Raji. As to the kind of experiment: Growth inhibition of human Raji cells incubated for 72 hrs by MTT assay. It is filed as functional.
Data set [6] has as its system SU-DHL-6. As to the kind of experiment: Antiproliferative activity against human SU-DHL-6 cells assessed as inhibition of cell viability preincubated for 12 hrs followed by compound washout and measured after 60 hrs by MTT assay. In kind it is functional, cell-based.
The subject of data set [7] is SU-DHL-6. As to the kind of experiment: Induction of apoptosis in human SU-DHL-6 cells assessed as viable cells at 10 uM incubated for 48 hrs by Annexin V-FITC/PI staining based flow cytometric analysis (reference value: 89.81 %). It is filed as functional. To be noted: read-out: Activity. A general note: In flow cytometry, cells or beads pass a laser one at a time.

Data set [8] relates to SU-DHL-6. Briefly: Inhibition of AKT phosphorylation in human SU-DHL-6 cells preincubated for 12 hrs followed by compound washout and measured after 24 hrs by Western blot analysis. In kind it is cell-based. On the technique in general: Immunoblotting shows a protein as a band on a membrane.
For data set [9], the system named is SU-DHL-6. Briefly: Inhibition of AKT phosphorylation in human SU-DHL-6 cells preincubated for 12 hrs followed by compound washout and measured upto 72 hrs by Western blot analysis. In kind it is cell-based.
Data set [10] deals with SU-DHL-6. As to the kind of experiment: Induction of apoptosis in human SU-DHL-6 cells assessed as viable cells at 1 uM incubated for 48 hrs by Annexin V-FITC/PI staining based flow cytometric analysis (reference value: 89.81 %). In kind it is functional. To be noted: read-out: Activity.
The subject of data set [11] is SU-DHL-6. Briefly: Induction of apoptosis in human SU-DHL-6 cells assessed as early apoptotic cells at 1 uM incubated for 48 hrs by Annexin V-FITC/PI staining based flow cytometric analysis (reference value: 5.02 %). It is filed as functional.
Data set [12] deals with SU-DHL-6. Briefly: Induction of apoptosis in human SU-DHL-6 cells assessed as late apoptotic cells at 1 uM incubated for 48 hrs by Annexin V-FITC/PI staining based flow cytometric analysis (reference value: 4.12 %). In kind it is functional.
Data set [13] deals with SU-DHL-6. Briefly: Induction of apoptosis in human SU-DHL-6 cells assessed as necrotic cells at 1 uM incubated for 48 hrs by Annexin V-FITC/PI staining based flow cytometric analysis (reference value: 1.05 %). It is filed as functional.
Data set [14] has as its system SU-DHL-6. As to the kind of experiment: Induction of apoptosis in human SU-DHL-6 cells assessed as early apoptotic cells at 10 uM incubated for 48 hrs by Annexin V-FITC/PI staining based flow cytometric analysis (reference value: 5.02 %). It is filed as functional.
For data set [15], the system named is SU-DHL-6. Briefly: Induction of apoptosis in human SU-DHL-6 cells assessed as late apoptotic cells at 10 uM incubated for 48 hrs by Annexin V-FITC/PI staining based flow cytometric analysis (reference value: 4.12 %). It is filed as functional.
Data set [16] has as its system SU-DHL-6. Briefly: Induction of apoptosis in human SU-DHL-6 cells assessed as necrotic cells at 10 uM incubated for 48 hrs by Annexin V-FITC/PI staining based flow cytometric analysis (reference value: 1.05 %). It is filed as functional.
In data set [17] the test system is SU-DHL-6. Briefly: Antitumor activity against human SU-DHL-6 cells xenografted in male nude mouse assessed as tumor growth inhibition at 5 mg/kg/day, po administered for 14 days relative to control. In kind it is functional. As to conditions: SU-DHL-6, 336 h, time 14 day, read-out: TGI.
Data set [18] can be described thus: Chemical reactivity of the compound with N-Boc-Lysine assessed as half-life at 1 uM by HPLC analysis. As to conditions: incubation with N-Boc-Lysine. It is filed as physicochemical.
In data set [19] the target is T1, Phosphatidylinositol 4,5-bisphosphate 3-kinase catalytic subunit delta isoform (Homo sapiens, UniProt O00329).
T1 sequence (O00329 whole entry): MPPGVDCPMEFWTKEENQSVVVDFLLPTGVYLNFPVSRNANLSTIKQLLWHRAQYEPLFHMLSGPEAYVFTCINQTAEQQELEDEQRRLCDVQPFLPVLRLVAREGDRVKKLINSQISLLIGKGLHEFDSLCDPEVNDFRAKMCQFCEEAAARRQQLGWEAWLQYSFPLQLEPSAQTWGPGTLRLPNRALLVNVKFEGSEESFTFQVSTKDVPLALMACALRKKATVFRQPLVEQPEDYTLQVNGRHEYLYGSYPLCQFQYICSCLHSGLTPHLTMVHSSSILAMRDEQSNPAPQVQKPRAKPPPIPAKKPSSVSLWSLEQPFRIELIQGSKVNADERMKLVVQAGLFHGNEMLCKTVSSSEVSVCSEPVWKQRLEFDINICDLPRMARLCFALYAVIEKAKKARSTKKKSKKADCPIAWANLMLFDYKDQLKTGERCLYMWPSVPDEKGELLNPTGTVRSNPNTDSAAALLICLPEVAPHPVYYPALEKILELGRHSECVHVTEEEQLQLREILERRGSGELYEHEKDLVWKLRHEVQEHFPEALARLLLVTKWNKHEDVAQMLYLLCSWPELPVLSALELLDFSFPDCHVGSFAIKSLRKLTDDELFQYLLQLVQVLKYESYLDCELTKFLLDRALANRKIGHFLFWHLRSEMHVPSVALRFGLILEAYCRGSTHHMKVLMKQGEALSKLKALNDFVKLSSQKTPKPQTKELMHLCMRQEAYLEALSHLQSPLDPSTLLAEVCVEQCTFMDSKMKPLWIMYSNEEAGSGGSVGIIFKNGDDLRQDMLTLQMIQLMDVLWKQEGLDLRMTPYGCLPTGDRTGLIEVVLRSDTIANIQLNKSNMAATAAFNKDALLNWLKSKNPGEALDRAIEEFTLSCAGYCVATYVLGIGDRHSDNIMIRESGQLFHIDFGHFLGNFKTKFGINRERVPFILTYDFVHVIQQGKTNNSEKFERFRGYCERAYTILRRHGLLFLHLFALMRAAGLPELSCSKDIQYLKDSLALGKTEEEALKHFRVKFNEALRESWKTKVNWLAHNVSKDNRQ
Briefly: Inhibition of recombinant PI3Kdelta (unknown origin) using PIP2:3PS as substrate preincubated for 20 mins followed by ATP addition and measured after 1 hrs by ADP-Glo reagent based assay.

Data set [20] concerns the target T2, Phosphatidylinositol 4,5-bisphosphate 3-kinase catalytic subunit delta isoform (Homo sapiens) (UniProt O00329).
T2 sequence (whole entry): T1 sequence (O00329 whole entry)
Briefly: Potency index, ratio of idelalisib IC50 to test compound IC50 for inhibition of recombinant PI3Kdelta (unknown origin) using PIP2:3PS as substrate preincubated for 20 mins followed by ATP addition and measured after 1 hrs by ADP-Glo reagent based assay. To be noted: time 80.0 min.

The subject of data set [21] is SU-DHL-6. As to the kind of experiment: Potency index, ratio of idelalisib GI50 to test compound GI50 for growth inhibition of PI3Kdelta-overexpressing human SU-DHL-6 cells incubated for 72 hrs by MTT assay. It is filed as functional.
Data set [22] in a line: Stability of compound in PBS at pH 7.4 incubated for 24 hrs at 37 degreeC by HPLC analysis. As to conditions: buffer, pH 7.4, 24 h. In kind it is physicochemical.
A short description of data set [23]: Stability of compound in water/acetonitrile solution incubated for 24 hrs by HPLC analysis. It is filed as physicochemical. To be noted: buffer.
Data set [24] deals with Phosphatidylinositol 4,5-bisphosphate 3-kinase catalytic subunit alpha isoform (Homo sapiens, UniProt P42336). As to the kind of experiment: Inhibition of recombinant PI3Kalpha (unknown origin) using PIP2:3PS as substrate preincubated for 20 mins followed by ATP addition and measured after 1 hrs by ADP-Glo reagent based assay.
The nature of data set [25]: Selectivity index, ratio of IC50 for inhibition of recombinant PI3Kalpha (unknown origin) using PIP2:3PS as substrate to IC50 for inhibition of recombinant PI3Kdelta (unknown origin) using PIP2:3PS as substrate.
Data set [26] has as its target Phosphatidylinositol 4,5-bisphosphate 3-kinase catalytic subunit beta isoform (Homo sapiens, UniProt P42338). As to the kind of experiment: Inhibition of recombinant PI3Kbeta (unknown origin) using PIP2:3PS as substrate preincubated for 20 mins followed by ATP addition and measured after 1 hrs by ADP-Glo reagent based assay.
Data set [27] is described as follows: Selectivity index, ratio of IC50 for inhibition of recombinant PI3Kbeta (unknown origin) using PIP2:3PS as substrate to IC50 for inhibition of recombinant PI3Kdelta (unknown origin) using PIP2:3PS as substrate.
Data set [28] concerns the target Phosphatidylinositol 4,5-bisphosphate 3-kinase catalytic subunit gamma isoform (Homo sapiens, UniProt P48736). As to the kind of experiment: Inhibition of recombinant PI3Kgamma (unknown origin) using PIP2:3PS as substrate preincubated for 20 mins followed by ATP addition and measured after 1 hrs by ADP-Glo reagent based assay.
A short description of data set [29]: Selectivity index, ratio of IC50 for inhibition of recombinant PI3Kgamma (unknown origin) using PIP2:3PS as substrate to IC50 for inhibition of recombinant PI3Kdelta (unknown origin) using PIP2:3PS as substrate.
Data set [30] in a line: Selectivity ratio of GI50 for human HCT-116 cells to GI50 for PI3Kdelta overexpressing human SU-DHL-6. In kind it is functional.
Data set [31] relates to SU-DHL-6. As to the kind of experiment: Inhibition of AKT phosphorylation in human SU-DHL-6 cells incubated for 24 hrs by Western blot analysis. In kind it is cell-based. To be noted: dose 10-1000 nM.

From ChEMBL document CHEMBL6127139, “Lysine-Targeted Covalent Inhibitors of PI3Kδ Synthesis and Screening by In Situ Interaction Upgradation” (J Med Chem, 2024) come the findings set out here.

Molecules are shown by their SMILES. Calls of active or inactive are those of the source.

Sequence of Phosphatidylinositol 4,5-bisphosphate 3-kinase catalytic subunit alpha isoform (P42336 whole entry, canonical isoform): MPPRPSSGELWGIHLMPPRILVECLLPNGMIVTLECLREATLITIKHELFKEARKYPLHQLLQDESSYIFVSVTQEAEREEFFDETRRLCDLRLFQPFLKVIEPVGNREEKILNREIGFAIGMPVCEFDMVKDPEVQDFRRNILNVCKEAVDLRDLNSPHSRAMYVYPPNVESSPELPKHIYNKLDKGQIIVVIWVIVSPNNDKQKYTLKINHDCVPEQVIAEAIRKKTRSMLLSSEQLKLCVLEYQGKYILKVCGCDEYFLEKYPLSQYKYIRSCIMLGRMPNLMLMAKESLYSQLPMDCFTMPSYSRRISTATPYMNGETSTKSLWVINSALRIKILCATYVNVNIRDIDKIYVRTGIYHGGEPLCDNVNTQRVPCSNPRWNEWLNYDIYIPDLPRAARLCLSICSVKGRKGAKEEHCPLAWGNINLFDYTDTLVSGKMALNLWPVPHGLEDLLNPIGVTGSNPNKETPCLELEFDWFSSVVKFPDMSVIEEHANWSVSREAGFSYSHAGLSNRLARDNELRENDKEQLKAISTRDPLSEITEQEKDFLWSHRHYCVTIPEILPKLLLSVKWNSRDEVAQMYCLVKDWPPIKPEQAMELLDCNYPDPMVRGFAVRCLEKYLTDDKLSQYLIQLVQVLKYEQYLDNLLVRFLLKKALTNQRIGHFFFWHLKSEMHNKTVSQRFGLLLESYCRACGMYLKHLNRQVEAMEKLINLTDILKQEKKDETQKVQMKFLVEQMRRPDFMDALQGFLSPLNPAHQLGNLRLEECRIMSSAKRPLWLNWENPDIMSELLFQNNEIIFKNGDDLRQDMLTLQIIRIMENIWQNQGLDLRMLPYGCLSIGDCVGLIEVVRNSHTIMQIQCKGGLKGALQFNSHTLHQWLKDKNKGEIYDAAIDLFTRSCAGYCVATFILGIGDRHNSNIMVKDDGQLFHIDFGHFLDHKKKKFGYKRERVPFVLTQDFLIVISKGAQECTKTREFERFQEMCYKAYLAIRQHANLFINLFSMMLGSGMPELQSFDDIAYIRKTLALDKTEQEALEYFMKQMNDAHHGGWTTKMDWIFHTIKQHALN
Sequence of Phosphatidylinositol 4,5-bisphosphate 3-kinase catalytic subunit gamma isoform (P48736 whole entry, canonical isoform): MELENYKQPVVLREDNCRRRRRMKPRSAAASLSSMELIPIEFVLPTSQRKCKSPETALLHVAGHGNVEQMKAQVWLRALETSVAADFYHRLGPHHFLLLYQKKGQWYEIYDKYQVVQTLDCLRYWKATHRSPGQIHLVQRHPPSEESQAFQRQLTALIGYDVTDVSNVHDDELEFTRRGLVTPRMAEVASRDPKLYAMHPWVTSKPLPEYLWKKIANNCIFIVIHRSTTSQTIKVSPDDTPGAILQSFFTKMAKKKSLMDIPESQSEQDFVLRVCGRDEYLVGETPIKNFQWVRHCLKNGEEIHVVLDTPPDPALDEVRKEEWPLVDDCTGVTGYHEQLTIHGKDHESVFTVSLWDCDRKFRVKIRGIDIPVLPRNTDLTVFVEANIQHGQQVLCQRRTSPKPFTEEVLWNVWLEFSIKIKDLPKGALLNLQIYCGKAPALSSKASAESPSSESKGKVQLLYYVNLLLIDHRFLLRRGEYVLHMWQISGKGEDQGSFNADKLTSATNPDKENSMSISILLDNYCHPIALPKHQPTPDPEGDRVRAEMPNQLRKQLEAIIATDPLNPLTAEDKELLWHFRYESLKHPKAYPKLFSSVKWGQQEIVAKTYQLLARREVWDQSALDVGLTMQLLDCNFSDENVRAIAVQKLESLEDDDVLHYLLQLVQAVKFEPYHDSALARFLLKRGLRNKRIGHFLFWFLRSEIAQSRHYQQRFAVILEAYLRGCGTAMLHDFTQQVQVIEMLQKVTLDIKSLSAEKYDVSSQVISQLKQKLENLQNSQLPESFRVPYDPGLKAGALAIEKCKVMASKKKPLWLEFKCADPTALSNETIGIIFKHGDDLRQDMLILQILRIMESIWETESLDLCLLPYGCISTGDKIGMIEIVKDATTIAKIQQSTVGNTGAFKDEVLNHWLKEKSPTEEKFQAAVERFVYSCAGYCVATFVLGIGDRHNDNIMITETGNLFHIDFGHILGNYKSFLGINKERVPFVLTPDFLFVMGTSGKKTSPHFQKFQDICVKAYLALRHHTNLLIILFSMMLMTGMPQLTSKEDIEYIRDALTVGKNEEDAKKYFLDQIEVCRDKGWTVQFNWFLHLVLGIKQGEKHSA
Sequence of Phosphatidylinositol 4,5-bisphosphate 3-kinase catalytic subunit beta isoform (P42338 whole entry, canonical isoform): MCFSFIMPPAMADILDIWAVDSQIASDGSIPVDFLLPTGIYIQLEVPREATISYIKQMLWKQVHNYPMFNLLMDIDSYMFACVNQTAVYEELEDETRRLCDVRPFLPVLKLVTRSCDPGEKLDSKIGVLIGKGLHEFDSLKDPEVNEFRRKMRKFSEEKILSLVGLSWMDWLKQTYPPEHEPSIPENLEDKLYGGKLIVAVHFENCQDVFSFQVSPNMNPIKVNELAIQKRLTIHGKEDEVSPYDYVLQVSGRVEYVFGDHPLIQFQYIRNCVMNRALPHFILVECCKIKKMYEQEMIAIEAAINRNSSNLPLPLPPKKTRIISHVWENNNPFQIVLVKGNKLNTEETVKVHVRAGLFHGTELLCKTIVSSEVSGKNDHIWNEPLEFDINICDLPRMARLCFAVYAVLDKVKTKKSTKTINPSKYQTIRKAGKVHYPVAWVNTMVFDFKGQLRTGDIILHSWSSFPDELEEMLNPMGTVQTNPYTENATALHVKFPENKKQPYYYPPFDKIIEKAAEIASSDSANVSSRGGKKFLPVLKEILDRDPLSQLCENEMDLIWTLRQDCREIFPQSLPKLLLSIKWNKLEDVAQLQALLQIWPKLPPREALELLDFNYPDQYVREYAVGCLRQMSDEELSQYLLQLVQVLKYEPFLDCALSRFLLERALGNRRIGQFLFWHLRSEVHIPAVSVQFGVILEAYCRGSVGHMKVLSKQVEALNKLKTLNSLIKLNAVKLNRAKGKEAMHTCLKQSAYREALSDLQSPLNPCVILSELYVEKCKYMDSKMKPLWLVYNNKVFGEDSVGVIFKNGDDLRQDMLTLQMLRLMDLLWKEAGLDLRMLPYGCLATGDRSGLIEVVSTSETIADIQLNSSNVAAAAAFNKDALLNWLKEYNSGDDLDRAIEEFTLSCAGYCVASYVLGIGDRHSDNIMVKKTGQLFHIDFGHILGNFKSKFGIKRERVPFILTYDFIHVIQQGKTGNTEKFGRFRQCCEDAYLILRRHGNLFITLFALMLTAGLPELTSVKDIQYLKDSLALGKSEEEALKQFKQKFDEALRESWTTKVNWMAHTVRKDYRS

Usually GI50 stands for the concentration giving 50% growth inhibition. Read a low GI50 as greater sensitivity of the cells. Turning to `CC[C@H](Nc1ncnc2[nH]cnc12)c1nc2cccc(F)c2c(=O)n1-c1ccccc1` [IDELALISIB], the GI50 in data set [1] is 0.2 µM; in data set [2], 8.33 µM; in data set [3], > 10 µM; in data set [4], > 10 µM; in data set [5] it was > 10 µM. Further, the result in data set [6] was inactive. The viability at 10 µM in data set [7] was 79.4%. Also, the inhibition entry in data set [8] and in [9] was “inactive” each time. For the same compound, the viability at 1 µM in data set [10] stood at 87%. For the same compound, the Activity in data set [11] is listed as 6.76%; in data set [12] it was 3.46%; in data set [13], 0.8%; in data set [14], 13.29%; in data set [15], 6.75%; in data set [16], 0.6%. Besides, the inhibition in vivo at 5 mg/kg/day in data set [17] was determined as 50%.

As usually defined, the half-life is the time needed for the level to fall by half in the phase considered. For orientation: IC50 means the concentration that gives 50% inhibition. Turning to `COc1ncc(-c2ccc3ncnc(N[C@H]4CCN(C(=O)C5CCOCC5)C4)c3c2)cc1C(=O)Oc1ccccc1`, the half-life at 1 µM in data set [18] stood at 2.4 h. Besides, the IC50 in data set [19] was determined as 0.00053 µM; in data set [24], 0.066 µM; in data set [26], 0.155 µM; in data set [28] it was 0.656 µM. The GI50 in data set [1] was 0.003 µM; in [2], 0.195 µM; in data set [3], 1.9 µM; in data set [4] it was > 10 µM; in [5] it was 8.2 µM. Besides, the Ratio IC50 is 10 in data set [20], 124 in [25], 292 in data set [27] and > 1000 in data set [29]. Also, the RatioGI50 in [21] is ~10; in data set [30], 2500. Besides, the Stability result in [22] and in [23] was “Stable” throughout. Further, the inhibition result in data set [31] is “Dose-Dependent Effect”. The result in [6] was Active. For the same compound, the inhibition entry in data set [8] and in data set [9] was “Active” each time.
